Measured values taken from patent US20100179344A1, “2-Alkylidene-18,19-Dinor-Vitamin D Compounds” (WISCONSIN ALUMNI RESEARCH FOUNDATION, priority 2004, published 2010).

Key:
[1] = system: 24-hydroxylase (24OHase) gene promoter in ROS 17/2.8 (bone) cells; test: Transcription activation, 24-hydroxylase promoter luciferase reporter; format: cell-based; settings: luciferase 16 h after dosing, FIG. 3
Method: Transcriptional activity was measured in ROS 17/2.8 (bone) cells that were stably transfected with a 24-hydroxylase (24OHase) gene promoter upstream of a luciferase reporter gene (Arbour et al., 1998). Cells were given a range of doses. Sixteen hours after dosing the cells were harvested and luciferase activities were measured using a luminometer.
“RLU” in FIG. 3 refers to relative luciferase units.

[2] = molecular target: T1, 1α,25-dihydroxyvitamin D pig intestinal nuclear receptor (Rattus norvegicus, UniProt P13053); test: Competitive VDR binding; settings: competition with 3H-1,25(OH)2D3; FIG. 1
T1 construct: Full-length recombinant rat receptor was expressed in E. coli; His tag (C); made in house; host or cells: E. coli BL21 (DE3) Codon Plus RIL
T1 sequence (P13053 1-423): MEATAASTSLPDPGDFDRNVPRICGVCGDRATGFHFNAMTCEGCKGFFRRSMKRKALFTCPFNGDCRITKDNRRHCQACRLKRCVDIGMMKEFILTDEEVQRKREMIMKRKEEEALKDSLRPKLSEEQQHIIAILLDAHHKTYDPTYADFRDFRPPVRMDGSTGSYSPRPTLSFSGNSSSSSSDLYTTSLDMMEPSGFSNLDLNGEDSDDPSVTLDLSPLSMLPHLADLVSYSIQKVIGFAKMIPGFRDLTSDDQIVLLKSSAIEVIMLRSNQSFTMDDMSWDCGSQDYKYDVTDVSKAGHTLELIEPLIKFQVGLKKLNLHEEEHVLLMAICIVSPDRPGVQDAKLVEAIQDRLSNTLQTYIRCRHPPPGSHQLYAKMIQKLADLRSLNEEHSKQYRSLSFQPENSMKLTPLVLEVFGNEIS
Method: Competitive binding of the analogs to the porcine intestinal receptor was carried out by the method described by Dame et al (Biochemistry 25, 4523-4534, 1986).
Full-length recombinant rat receptor was expressed in E. coli BL21 (DE3) Codon Plus RIL cells and purified using two different column chromatography systems. The first system was a nickel affinity resin that utilized the C-terminal histidine tag on this protein. The protein that was eluted from this resin was further purified using ion exchange chromatography (S-Sepharose Fast Flow). Aliquots of the purified protein were quick frozen in liquid nitrogen and stored at −80° C. until use. […]
Unlabeled ligands were dissolved in ethanol and the concentrations determined using UV spectrophotometry. […]
Radiolabeled and unlabeled ligands were added to 100 mcl of the diluted protein, mixed and incubated overnight on ice to reach binding equilibrium. […] Total binding was determined from the tubes containing only radiolabeled ligand. The percentage of competition was calculated by subtracting the number of dpm remaining in the hydroxylapatite pellet from the total number of dpm bound, dividing by the total number of dpm bound and multiplying by one hundred. Duplicate tubes were prepared and analyzed for each test concentration.

[3] = Intestinal calcium transport (everted gut sac); format: in vivo, rat; settings: male Sprague-Dawley rats, low calcium diet, four intraperitoneal doses; FIG. 4
Excerpt: (§1) Weanling, male Sprague-Dawley rats were purchased from Harlan. Upon receipt, the animals were identified by individual tail marks and fed a calcium containing (0.47%) diet (Suda et al., Purified Rodent Diet-Diet 11; Appendix A) for one week before switching to the same diet devoid of calcium (0.02%). Water and a purified rodent diet (Diet 11; Appendix A) containing either 0.47% or 0.02% calcium and 0.3% phosphorus were provided ad libitum. Animals were fed the purified diet containing 0.47% calcium for the first week and then the 0.02% calcium containing diet for the next three weeks of the study. The rats were then fed 0.47% calcium containing diet for one week before switching back to 0.02% calcium containing diet for the remainder of the study. During the second week back on 0.02% calcium containing diet, dose administration began. All doses were administered intraperitoneally in 100 microliters of propylene glycol. Four consecutive doses were given approximately 24 hours apart. […] The level of calcium was determined by diluting the serum into 0.1% lanthum chloride and measuring the absorbance on an atomic absorption spectrophotometer (Perkin Elmer Model 3110, Shelton, Conn.). Twenty-four hours after the last dose, intestinal calcium transport was assessed ex vivo using the everted gut sac technique.

[4] = Bone calcium mobilization (serum calcium); format: in vivo, rat; settings: male Sprague-Dawley rats, low calcium diet, four intraperitoneal doses; FIGS. 5 and 6
Excerpt: as §1, with “diet, the animals were tail-bled (baseline serum calcium) and then” for “diet,”, “was initiated.” for “began.”, “apart. Twenty-four hours after the last dose, blood was collected from the tail artery of each experimental animal.” for “apart.”, “Conn.).” for “Conn.). Twenty-four hours after the last dose, intestinal calcium transport was assessed ex vivo using the everted gut sac technique.”

[5] = system: HL-60 cells; test: HL-60 cell differentiation (NBT reduction); format: cell-based, human; settings: FIG. 2; for percent of HL-60 cells induced to differentiate: NBT assay, concentration 1×10^−7M
Method: The differentiation of HL-60 promyelocytic into monocytes was determined as described by Ostrem et al (J. Biol. Chem. 262, 14164-14171, 1987).
The study drugs were dissolved in ethanol and the concentrations determined using UV spectrophotometry (2MD:molar extinction coefficient=42,000 and Imax=252 nm; 1,25(OH)2D3:molar extinction=18,200 and Imax=265 nm). Serial dilutions were prepared so that a range of drug concentrations could be tested without changing the final concentration of ethanol (<0.2%) present in the cell cultures.
Human promyelocytic leukemia (HL60) cells were grown in RPMI-1640 medium containing 10% fetal bovine serum. The cells were incubated at 37° C. in the presence of 5% CO2.
HL60 cells were plated at 1.2×10^5 cells/ml. Eighteen hours after plating, the cells were administered the drug in ethanol. Four days post-dose, the cells were harvested and a nitro blue tetrazolium reduction assay was performed (Collins et al., 1979; J. Exp. Med. 149:969-974, Appendix A). The percentage of differentiated cells was determined by counting a total of 200 cells and recording the number that contained intracellular black-blue formazan deposits. Verification of differentiation to monocytic cells was determined by measuring phagocytic activity (data not shown). All drug concentrations were tested in duplicate.
This is illustrated by the biological assay results obtained for (20S)-2-methylene-18,19-dinor-1α,25-dihydroxy-vitamin D3 which is summarized in FIGS. 2 through 6. […] Differentiation activity was assessed by a standard differentiation assay, abbreviated as NBT reduction (nitroblue tetrazolium reduction). The assay was conducted according to known procedures, as given, for example, by DeLuca et al U.S. Pat. No. 4,717,721 and Ostrem et al, J. Biol. Chem. 262, 14164, 1987. For the assay, the differentiation activity of the test compounds is expressed in terms of the percent of HL-60 cells having differentiated to normal cells in response to a given concentration of test compound.

| SMILES | transcriptional activity compared with 1α,25-dihydroxyvitamin D3 [1] | activity in binding to the 1α,25-dihydroxyvitamin D3 receptor [2] | intestinal calcium transport activity compared with 1α,25-dihydroxyvitamin D3 [3] | ability to mobilize calcium from bone compared with 1α,25-dihydroxyvitamin D3 [4] | potency in promoting differentiation of leukemia cells compared with 1α,25-dihydroxyvitamin D3 ([5]; HL-60 cells) | percent of HL-60 cells induced to differentiate [5] |
| --- | --- | --- | --- | --- | --- | --- |
| C=C1[C@H](O)CC(=C/C=C2\CCC[C@@H]3C([C@@H](C)CCCC(C)(C)O)CC[C@@H]23)C[C@H]1O (stereo partly drawn) [DP035, (20S)-2-methylene-18,19-dinor-1α,25-dihydroxyvitamin D3] | higher transcriptional activity | very active | as active as | clearly not as active | more potent | the same degree of differentiation |
| C=C1/C(=C\C=C2/CCC[C@]3(C)[C@@H]([C@H](C)CCCC(C)(C)O)CC[C@@H]23)C[C@@H](O)C[C@@H]1O [C001, 1α,25-dihydroxyvitamin D3, reference compound] | – | – | – | – | – | ~90% |
